Laboratory results from US6914049B2, “IGF-binding protein-derived peptide or small molecule” (Bioexpertise, LLC, priority 2001, dated 2005).

What was measured:
[1] = system: HEK293 cells; assay: Caspase-3 apoptosis assay on nutritionally stressed HEK293 cells (Examples 1-2); assay type: cell-based, human; conditions: FIG. 4A/4B
Method: Human embryonal kidney 293 (HEK293) cells were grown in Dulbecco's Modified Eagle Medium (D-MEM) supplemented with fetal calf serum at 2%, 4%, 6%, or 8%. When the cells reached 80-85% confluency (cell titer approximately 2.1×10^6 cells per plate), 5 μg of IGFBP-3 or buffer control was added to each plate. The cells were incubated at 37° C. overnight. The next day the medium was removed and the cells were rinsed with trypsin-EDTA (0.25% trypsin, 1 mM EDTA) plus 1× phosphate buffered saline. The cells were centrifuged and the supernatant was removed. ApoAlert caspase-3 assay kit from Clontech Inc (Palo Alto, Calif.) was used to measure apoptosis. The cells were resuspended in 50 μl of chilled cell lysis buffer and incubated on ice for 10 minutes. The resulting cell, lysates were centrifuged at 14000 rpm in a Beckman microcentrifuge for 3 minutes at 4 C. The supernatant was transferred to new tubes and 50 μl of 2× reaction buffer/DTT plus 5 μl of 1 mM caspase-3 substrate was added to each tube. After incubating at 37 C. for 1 hour in a water bath, the samples were read at 405 nm in a microplate reader.
Peptides derived from IGFBP-3 were tested for pro-apoptotic activity essentially as described in Example 1.
The peptides tested are described in Table 1 (peptides marked with an asterisk include a hexahistidine tag).

[2] = system: MDA-MB-231 cells; assay: Co-apoptotic activity of IGFBP-3 with cisplatin; assay type: cell-based; conditions: MDA-MB-231 cells and cisplatin; FIG. 8C
[3] = system: HEK 293 cells; assay: IGF-independence of apoptosis stimulation, caspase-3; assay type: cell-based, human
Method: HEK 293 cells were cultured under stressed conditions (low serum or in the presence of paclitaxel) with and without IGFBP-3 (50 ng/ml) or MBD2 (50 ng/ml). Apoptosis was assayed using the caspase-3 assay as described in Example 1.

[4] = system: HEK293 cells; assay: Co-apoptotic activity of IGFBP-3 and paclitaxel, caspase-3; assay type: cell-based, human; conditions: 200 ng/ml antibody, 30 minutes pretreatment; FIG. 8B
Method: Co-aptotic activity of IGFBP-3 in combination with paclitaxel was measured in the HEK293 assay described in Example 1. HEK293 cells were grown in DMEM plus 8% FCS, then incubated in 0.3 ng/ml of paclitaxel (TAXOL®), 50 ng/ml of IGFBP-3, or a combination of the two. Some cultures were pretreated for 30 minutes with 200 ng/ml of anti-beta-1-integrin antibody (Pharmingen). Caspase-3 was assayed using the ApoAlert caspase-3 kit from Clontech Inc.

[5] = Metal-binding of peptides to Ni-NTA resin; conditions: percentage of loaded peptide bound to Ni-NTA resin; 1-1.5 mg loaded
Method: (§1) Apoptotic activity is expressed in arbitrary caspase-3 units normalized to MBD2 on a molar basis (MBD2 activity was defined as 100 units (avg. of 3 experiments); “nd” indicates “not done”; “ps” indicates phosphoserine. Metal-binding is expressed as a percentage of loaded peptide bound to a Ni-NTA resin; approximately 1-1.5 mg of peptide were loaded on the column. Cell uptake was determined using genetic fusions to GFP as described in Example 9.

[6] = Binding of IGFBP-3 to IMAC (NTA) resin charged with metal; conditions: approx. 1 mg loaded
Method: (§2) Binding of IGFBP-3 to immobilized metal affinity chromatography (IMAC) resin charged with various metals was measured. Approximately 1 mg of IGFBP-3 was loaded onto each column (NTA resin, Sigma Chemical Co., St. Louis, Mo.). The “percentage bound” was calculated by measuring OD280 of load, flow-through, wash and eluate at 60 mM imidazole. Typical recoveries were 85-95%.

[7] = system: HEK293 cells; assay: Co-apoptotic activity with paclitaxel in presence of plasma proteins; assay type: cell-based, human; conditions: 50 ng/ml, 0.3 ng/ml paclitaxel, eight hours
Method: Co-apoptotic activity of MBD peptides or IGFBP-3 with paclitaxel was tested in the presence or absence of two plasma proteins; fibronectin and fibrinogen. MBD peptides or IGFBP-3, (50 ng/ml), 0.3 ng/ml paclitaxel, and plasma proteins (200 ng/ml) were added to 80% confluent HEK293 cells grown in DMEM essentially as described in Example 8. Caspase-3 was measured after an eight hour incubation.
Apoptotic activity was calculated in arbitrary caspase-3 units normalized to MBD2 (MBD2 activity was defined as 100 units) Results are summarized in Table 4 (average of 3 experiments).

[8] = IMAC of IGFBP-3 on Ni++ and Zn++ resins; assay type: binding
Method: Panels a and b (FIGS. 5A and 5B) show SDS-PAGE analysis of samples from Ni^++ and Zn^++ IMAC, respectively. FT indicates column flowthrough; W indicates wash; 50 indicates 50 mM imidazole wash; 60 indicates 60 mM imidazole wash; E indicates 1 M imidazole elution buffer; S indicates 1 M EDTA stripping buffer.
This previously unknown property of IGFBP-3 is intriguing and has a number of practical implications among which the ability to capture products using immobilized metal affinity (IMAC) resins leads to a number of potential applications in therapeutic, high-throughput discovery, and other research arenas.

[9] = system: bax-alpha expression in HEK 293 cells; assay: Bax-alpha and bcl-2 mRNA expression; assay type: cell-based, human; conditions: paclitaxel 0.3 ng/ml, 50 ng/ml; FIG. 14A
Method: HEK 293 cells were cultured as described in Example 1, with the addition paclitaxel (0.3 ng/ml) and either IGFBP-3 or MBD2 at 50 ng/ml. Bax-alpha and bcl-2 mRNA and caspase 3 activity were assayed.

[10] = system: HEK 293 cells; assay: Co-apoptotic activity of MBD peptides and paclitaxel, caspase-3; assay type: cell-based, human; conditions: normalized to MBD2 = 100 on a molar basis; peptide 50 ng/ml, 0.3 ng/ml paclitaxel, 8 hours
Method: Peptides (50 ng/ml) were added to 80% confluent HEK 293 cells grown in DMEM supplemented with 0.3 ng/ml paclitaxel concurrent with peptide. Caspase-3 activity was measured in cell extracts 8 hours post-addition.
as §1

[11] = Binding of IGFBP-3 to IMAC (NTA) resin without metal; conditions: metal none; approx. 1 mg loaded
Method: as §2

[12] = system: MA-16C mammary adenocarcinoma tumors; assay: MA-16C mammary adenocarcinoma tumor implants; assay type: in vivo, female C3H mice; conditions: for Lung Metastases: animals with metastases/animals
Method: Fragments of MA-16C mammary adenocarcinoma tumors were implanted subcutaneously into female C3H mice (8-11 animals per group). The animals were treated with vehicle alone, IGFBP-3 (4 mg/kg/day for 21 days by subcutaneous injection), doxorubicin (2 mg/kg on days 1 and 8 by intravenous injection), or IGFBP-3 plus doxorubicin. A separate study was performed where the animals were treated with vehicle alone, 5-fluorouracil (10 mg/kg on days 1-5 by intraperitoneal injection), or IGFBP-3 plus 5-fluorouracil. Tumor size was measured at day 18, and the mice were sacrificed at day 21, and the implanted tumors were removed for determination of caspase-3 activity (a marker of apoptosis-only performed for DOX groups).

[13] = Solubility / concentration in phosphate buffered saline; assay type: physicochemical; conditions: PBS
Text: Formulation: The central domain of IGFBP-3 is exquisitely sensitive to proteolysis. Due to the limited, solubility of IGFBP-3, its low stability and pronounced tendency to aggregate, the development of suitable formulations and convenient routes of delivery for intact IGFBP-3 is challenging.

- Metal-binding [5]: 93 percentage
- % IGFBP-3 bound ([6]; Ca^++): 0.0%
- % IGFBP-3 bound ([6]; Co^++): 95.1%
- % IGFBP-3 bound ([6]; Fe^2+): 46.6%
- % IGFBP-3 bound ([6]; Fe^3+): 55.1%
- % IGFBP-3 bound ([6]; Mg^++): 38.8%
- % IGFBP-3 bound ([6]; Mn^++): 20.1%
- % IGFBP-3 bound ([6]; Ni^++): 97.6%
- % IGFBP-3 bound ([6]; Zn^++): 59.5%
- binding to IMAC resins ([8]; Ni^++ and Zn^++ IMAC, SDS-PAGE): bound both IMAC resins effectively
- % IGFBP-3 bound [11]: 0.0%
Substance: IGFBP-3: full-length, 264 aa, IGFBP-3 (insulin-like growth factor binding protein-3)
- pro-apoptotic activity [1]: has pro-apoptotic activity
- co-apoptotic activity [2]: failed to demonstrate any co-apoptotic activity
- IGF dependence of pro-apoptotic activity ([3]; 0.3 ng/ml paclitaxel, alone or with Y60L-IGF-I, FIG. 11C): independent of the presence of IGF
- pro-apoptotic activity under stressed conditions ([3]; low serum or paclitaxel, 50 ng/ml, FIGS. 11A, 11B): nearly identical
- co-apoptotic activity after anti-beta-1-integrin antibody pretreatment [4]: greatly inhibits the co-apoptotic activity
- co-apoptotic activity with Fibrinogen ([7]; Fibrinogen 200 ng/ml): 1.1 arbitrary caspase-3 units
- co-apoptotic activity with Fibronectin ([7]; Fibronectin 200 ng/ml): 3.5 arbitrary caspase-3 units
- co-apoptotic activity, plasma protein none ([7]; no plasma protein): 100.0 arbitrary caspase-3 units
- imidazole concentration that elutes from the resin ([8]; immobilized nickel and zinc): 60 mM
- bax-alpha expression [9]: stimulates bax-alpha expression
- Apoptotic Activity [10]: 585 arbitrary caspase-3 units
- Tumor Weight ([12]; 5FU study, 5-fluorouracil 10 mg/kg ip days 1-5, IGFBP-3 4 mg/kg/day sc): 3147 + 952 mg
- Lung Metastases ([12]; 5FU study): 1/7
- Tumor Weight ([12]; DOX study, IGFBP-3 4 mg/kg/day sc 21 days, doxorubicin 2 mg/kg iv days 1 and 8): 2632 + 554 mg
- Lung Metastases ([12]; DOX study): 1/7
- Caspase-3 ([12]; DOX study, tumors removed at day 21): 3.79 ± 3.25
- maximum solubility in phosphate buffered saline [13]: 7000 µg/mL
